What was measured:
Assay in all cases: KINOMEscan in vitro binding to 468 labeled protein kinases
protein kinases [1] = target: T1, protein kinases (Homo sapiens, UniProt P07949, V804L); settings: RET(V804L), read-out: Test compound/solvent control (%)
T1 construct: purchased Discovery X company (USA), KINOMEscan screening platform
Protocol: (§1) Test Example 6 Determination of Binding Affinity of the Present Compounds on Protein Kinases In Vitro
(§2) KINOMEscan screening platform of Discovery X company (USA) was used to identify the binding targets of the present compounds to protein kinases. Compound 66 of the present invention was dissolved in DMSO (Sigma Aldrich) at concentrations of 1000 nM, 10 nM and 1 nM, and then was subjected to in vitro binding reaction with 468 labeled protein kinases. Two samples were taken in parallel for each assay sample.
(§3) The lower the percentage of the test compound to the solvent control, the stronger the binding affinity of the test compound to the protein kinase in vitro.

protein kinases [2] = target: T2, protein kinases (Homo sapiens, UniProt P30530); settings: AXL, read-out: Test compound/solvent control (%)
T2 construct: purchased Discovery X company (USA), KINOMEscan screening platform
T2 sequence (P30530 26-894): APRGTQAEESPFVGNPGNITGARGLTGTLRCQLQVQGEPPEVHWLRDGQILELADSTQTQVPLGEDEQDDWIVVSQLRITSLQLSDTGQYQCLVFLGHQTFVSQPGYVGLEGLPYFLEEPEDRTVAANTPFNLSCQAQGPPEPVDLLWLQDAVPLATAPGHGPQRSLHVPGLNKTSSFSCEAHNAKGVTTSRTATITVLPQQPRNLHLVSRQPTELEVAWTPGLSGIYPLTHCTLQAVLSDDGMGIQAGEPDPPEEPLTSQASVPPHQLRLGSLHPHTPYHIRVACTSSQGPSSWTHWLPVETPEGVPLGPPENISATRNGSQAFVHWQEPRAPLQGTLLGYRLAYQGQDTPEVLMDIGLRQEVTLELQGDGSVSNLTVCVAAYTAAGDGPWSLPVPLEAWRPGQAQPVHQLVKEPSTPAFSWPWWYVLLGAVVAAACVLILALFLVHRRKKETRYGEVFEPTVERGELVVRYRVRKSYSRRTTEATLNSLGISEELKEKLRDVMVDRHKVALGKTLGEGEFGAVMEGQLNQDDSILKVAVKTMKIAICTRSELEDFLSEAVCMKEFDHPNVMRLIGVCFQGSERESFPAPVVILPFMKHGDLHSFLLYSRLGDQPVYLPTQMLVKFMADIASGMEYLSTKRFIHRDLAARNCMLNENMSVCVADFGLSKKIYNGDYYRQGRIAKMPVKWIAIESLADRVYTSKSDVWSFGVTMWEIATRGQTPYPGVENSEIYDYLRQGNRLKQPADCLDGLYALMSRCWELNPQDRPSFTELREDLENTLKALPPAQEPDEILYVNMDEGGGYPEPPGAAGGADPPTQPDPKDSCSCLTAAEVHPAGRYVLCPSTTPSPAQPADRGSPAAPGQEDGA
Protocol: as §1, §2, §3

protein kinases [3] = target: T3, protein kinases (Homo sapiens, UniProt P36888, R834Q); settings: FLT3(R834Q), read-out: Test compound/solvent control (%)
T3 construct: purchased Discovery X company (USA), KINOMEscan screening platform
T3 sequence (P36888 27-993 R834Q): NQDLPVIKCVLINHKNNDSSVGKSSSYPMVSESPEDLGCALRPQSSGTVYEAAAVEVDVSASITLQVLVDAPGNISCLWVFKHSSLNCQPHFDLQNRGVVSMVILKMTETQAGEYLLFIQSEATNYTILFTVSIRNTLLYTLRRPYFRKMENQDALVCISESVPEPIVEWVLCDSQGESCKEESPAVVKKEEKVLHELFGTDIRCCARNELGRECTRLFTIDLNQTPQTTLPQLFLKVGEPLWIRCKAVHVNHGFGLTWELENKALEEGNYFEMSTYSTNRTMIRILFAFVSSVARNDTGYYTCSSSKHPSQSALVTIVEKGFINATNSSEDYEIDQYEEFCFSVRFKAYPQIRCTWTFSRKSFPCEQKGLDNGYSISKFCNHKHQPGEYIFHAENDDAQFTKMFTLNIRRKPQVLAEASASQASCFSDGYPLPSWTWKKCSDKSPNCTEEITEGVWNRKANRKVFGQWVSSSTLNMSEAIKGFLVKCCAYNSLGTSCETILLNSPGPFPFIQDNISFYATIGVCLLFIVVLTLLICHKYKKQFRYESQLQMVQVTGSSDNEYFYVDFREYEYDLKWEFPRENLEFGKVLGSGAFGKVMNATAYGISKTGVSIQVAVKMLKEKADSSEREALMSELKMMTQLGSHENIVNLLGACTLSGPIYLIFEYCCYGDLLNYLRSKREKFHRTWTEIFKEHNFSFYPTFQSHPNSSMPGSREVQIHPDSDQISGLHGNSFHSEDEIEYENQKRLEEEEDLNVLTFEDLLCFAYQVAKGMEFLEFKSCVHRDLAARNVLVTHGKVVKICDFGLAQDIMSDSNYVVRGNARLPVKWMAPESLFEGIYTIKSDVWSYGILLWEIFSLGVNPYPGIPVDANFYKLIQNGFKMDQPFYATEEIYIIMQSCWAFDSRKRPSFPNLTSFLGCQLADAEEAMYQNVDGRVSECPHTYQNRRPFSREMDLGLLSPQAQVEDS
Protocol: as §1, §2, §3

T1 sequence (P07949 29-1114 V804L): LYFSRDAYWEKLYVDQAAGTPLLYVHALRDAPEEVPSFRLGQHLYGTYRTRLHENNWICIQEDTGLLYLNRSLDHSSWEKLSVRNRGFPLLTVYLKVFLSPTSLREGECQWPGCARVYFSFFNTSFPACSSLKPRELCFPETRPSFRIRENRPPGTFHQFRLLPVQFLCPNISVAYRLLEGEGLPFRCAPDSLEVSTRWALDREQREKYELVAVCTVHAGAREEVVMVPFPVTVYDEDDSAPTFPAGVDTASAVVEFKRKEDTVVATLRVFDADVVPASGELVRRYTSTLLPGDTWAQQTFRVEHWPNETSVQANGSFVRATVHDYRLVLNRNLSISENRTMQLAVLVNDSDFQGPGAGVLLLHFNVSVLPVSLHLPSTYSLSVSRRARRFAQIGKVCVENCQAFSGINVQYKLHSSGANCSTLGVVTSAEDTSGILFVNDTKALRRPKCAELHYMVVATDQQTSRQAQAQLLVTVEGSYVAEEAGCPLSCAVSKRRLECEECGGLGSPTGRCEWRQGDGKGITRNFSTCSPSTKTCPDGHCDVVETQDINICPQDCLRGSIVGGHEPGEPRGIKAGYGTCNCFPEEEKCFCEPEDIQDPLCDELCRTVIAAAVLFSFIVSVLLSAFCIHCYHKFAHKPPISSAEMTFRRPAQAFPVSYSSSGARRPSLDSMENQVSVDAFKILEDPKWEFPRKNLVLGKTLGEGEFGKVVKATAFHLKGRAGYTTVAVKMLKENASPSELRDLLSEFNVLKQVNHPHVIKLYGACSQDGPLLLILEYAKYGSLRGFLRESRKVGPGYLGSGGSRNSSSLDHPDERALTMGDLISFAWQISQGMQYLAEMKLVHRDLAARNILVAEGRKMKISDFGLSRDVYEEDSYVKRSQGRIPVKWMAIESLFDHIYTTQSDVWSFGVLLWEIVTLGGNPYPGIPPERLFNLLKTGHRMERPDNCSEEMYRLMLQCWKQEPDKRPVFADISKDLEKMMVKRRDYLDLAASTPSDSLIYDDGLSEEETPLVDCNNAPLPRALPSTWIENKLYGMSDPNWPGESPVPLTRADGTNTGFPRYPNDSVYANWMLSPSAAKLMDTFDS

remaining binding at 0.001 µM (protein kinases [1]; 1 nM): 88%
remaining binding at 0.01 µM (protein kinases [1]; 10 nM): 17%
remaining binding at 1 µM (protein kinases [1]; 1000 nM): 0%
remaining binding at 0.001 µM (protein kinases [2]; 1 nM): 53%
remaining binding at 0.01 µM (protein kinases [2]; 10 nM): 7.2%
remaining binding at 1 µM (protein kinases [2]; 1000 nM): 4.1%
remaining binding at 0.001 µM (protein kinases [3]; 1 nM): 83%
remaining binding at 0.01 µM (protein kinases [3]; 10 nM): 45%
remaining binding at 1 µM (protein kinases [3]; 1000 nM): 0.6%
Structure (SMILES): COCCOc1cc2nccc(Oc3ccc(NC(=O)Nc4cc(C(C)(C)C)n[nH]4)c(Cl)c3)c2cc1NC(C)=O [Compound 66, N-[4-{4-[3-(5-tert-butyl-2H-pyrazol-3-yl)-ureido]-3-chloro-phenoxy}-7-(2-methoxy-ethoxy)-quinolin-6-yl]-acetamide]

— patent US10800741B2 (ANCUREALL PHARMACEUTICAL (SHANGHAI) CO., LTD., priority 2017, dated 2020)
